From patent US11254688B2 (Boehringer Ingelheim International GmbH, priority 2018, dated 2022)
pIC50: −log10 of the molar value.

Each compound was assayed against T1, hGOAT (Homo sapiens, UniProt Q96T53) (assay: Determination of hGOAT activity in HEK293 cells after incubation with test compound (acyl-ghrelin ELISA)). Conditions: HEK293 cells stably transfected with preproghrelin and human GOAT; octanoate-BSA 100 μM; 5 hours incubation; acyl-ghrelin in medium by ELISA; 8 compound concentrations.
T1 construct: expressed in transfected cells; host or cells: HEK293 (Hek293 hGOAT/PPGhrl Clone #1B8)
T1 sequence (Q96T53 1-435): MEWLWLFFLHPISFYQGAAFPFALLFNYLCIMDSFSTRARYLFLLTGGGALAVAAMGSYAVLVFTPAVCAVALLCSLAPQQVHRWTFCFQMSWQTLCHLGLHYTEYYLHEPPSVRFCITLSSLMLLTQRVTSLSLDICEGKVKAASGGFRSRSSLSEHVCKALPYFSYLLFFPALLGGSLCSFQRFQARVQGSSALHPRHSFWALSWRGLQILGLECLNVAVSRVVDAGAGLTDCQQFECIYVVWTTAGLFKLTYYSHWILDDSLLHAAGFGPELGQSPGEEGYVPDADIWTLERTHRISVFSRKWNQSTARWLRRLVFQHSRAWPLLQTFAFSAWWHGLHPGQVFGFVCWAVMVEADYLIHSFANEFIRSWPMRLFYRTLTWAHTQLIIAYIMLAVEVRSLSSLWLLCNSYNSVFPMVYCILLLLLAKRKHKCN
Type: cell-based

Row | pIC50 | Compound
1 | 9.36 | Cc1nc2nonc2c(N)c1Cc1ccc(-c2c[nH]nc2C(F)(F)F)nc1 [Compound 12.10, 5-Methyl-6-({6-[3-(trifluoromethyl)-1H-pyrazol-4-yl]pyridin-3-yl}methyl)-[1,2,5]oxadiazolo[3,4-b]pyridin-7-amine]
2 | 8.88 | Cc1nc2nonc2c(N)c1Cc1ccc(-c2c(C)noc2C)n2cnnc12 [Compound 12.11, 6-{[5-(3,5-Dimethyl-1,2-oxazol-4-yl)-[1,2,4]triazolo[4,3-a]pyridin-8-yl]methyl}-5-methyl-[1,2,5]oxadiazolo[3,4-b]pyridin-7-amine]
3 | 8.90 | Cc1nc2nonc2c(N)c1Cc1ccc(-c2ccsc2C#N)n2cnnc12 [Compound 12.12, 3-[8-({7-Amino-5-methyl-[1,2,5]oxadiazolo[3,4-b]pyridin-6-yl}methyl)-[1,2,4]triazolo[4,3-a]pyridin-5-yl]thiophene-2-carbonitrile]
4 | 8.55 | Cc1nc2nonc2c(N)c1Cc1ccc(-c2ccnn2C)n2cnnc12 [Compound 12.13, 5-Methyl-6-[5-(2-methyl-2H-pyrazol-3-yl)-[1,2,4]triazolo[4,3-a]pyridin-8-ylmethyl]-[1,2,5]oxadiazolo[3,4-b]pyridin-7-ylamine]
5 | 8.81 | Cc1nc2nonc2c(N)c1Cc1cccc(N=S(C)(C)=O)c1 [Compound 13.1, {[3-({7-Amino-5-methyl-[1,2,5]oxadiazolo[3,4-b]pyridin-6-yl}methyl)phenyl]imino}dimethyl-λ^6-sulfanone]
6 | 10.48 | Cc1nc2nonc2c(N)c1Cc1ccc(OC(F)(F)F)c(N=S(C)(C)=O)c1 [Compound 13.2, {[5-({7-Amino-5-methyl-[1,2,5]oxadiazolo[3,4-b]pyridin-6-yl}methyl)-2-(trifluoromethoxy)phenyl]imino}dimethyl-λ^6-sulfanone]
7 | 8.20 | Cc1nc2nonc2c(N)c1Cc1ccc(C(N)=O)cc1 [Compound 14.1, 4-({7-Amino-5-methyl-[1,2,5]oxadiazolo[3,4-b]pyridin-6-yl}methyl)benzamide]
8 | 9.18 | Cc1nc2nonc2c(N)c1Cc1ccc(C(=O)N(C)C)cc1 [Compound 14.2, 4-({7-Amino-5-methyl-[1,2,5]oxadiazolo[3,4-b]pyridin-6-yl}methyl)-N,N-dimethylbenzamide]
9 | 8.53 | Cc1nc2nonc2c(N)c1Cc1ccc(C(=O)NCC2CN(C)CCO2)cc1 (centres unmarked) [Compound 14.3, 4-({7-Amino-5-methyl-[1,2,5]oxadiazolo[3,4-b]pyridin-6-yl}methyl)-N-[(4-methylmorpholin-2-yl)methyl]benzamide]
10 | 8.65 | Cc1nc2nonc2c(N)c1Cc1ccc(C(=O)NCc2ccn(C)n2)cc1 [Compound 14.4, 4-({7-Amino-5-methyl-[1,2,5]oxadiazolo[3,4-b]pyridin-6-yl}methyl)-N-[(1-methyl-1H-pyrazol-3-yl)methyl]benzamide]
11 | 8.63 | Cc1nc2nonc2c(N)c1Cc1ccc(C(=O)NC2CCOCC2)cc1 [Compound 14.5, 4-({7-Amino-5-methyl-[1,2,5]oxadiazolo[3,4-b]pyridin-6-yl}methyl)-N-(oxan-4-yl)benzamide]
12 | 8.37 | Cc1nc2nonc2c(N)c1Cc1ccc(C(=O)NC2(CO)CC2)cc1 [Compound 14.6, 4-({7-Amino-5-methyl-[1,2,5]oxadiazolo[3,4-b]pyridin-6-yl}methyl)-N-[1-(hydroxymethyl)cyclopropyl]benzamide]
13 | 8.74 | Cc1nc2nonc2c(N)c1Cc1ccc(C(=O)Nc2cn(C)nc2C(F)(F)F)cc1 [Compound 14.7, 4-({7-Amino-5-methyl-[1,2,5]oxadiazolo[3,4-b]pyridin-6-yl}methyl)-N-[1-methyl-3-(trifluoromethyl)-1H-pyrazol-4-yl]benzamide]
14 | 8.44 | Cc1nc2nonc2c(N)c1Cc1ccc(C(=O)NCc2cnccn2)cc1 [Compound 14.8, 4-({7-Amino-5-methyl-[1,2,5]oxadiazolo[3,4-b]pyridin-6-yl}methyl)-N-[(pyrazin-2-yl)methyl]benzamide]
15 | 8.51 | Cc1nc2nonc2c(N)c1Cc1ccc(C(=O)NC2CCN(C)C2=O)cc1 (centres unmarked) [Compound 14.9, 4-({7-Amino-5-methyl-[1,2,5]oxadiazolo[3,4-b]pyridin-6-yl}methyl)-N-(1-methyl-2-oxopyrrolidin-3-yl)benzamide]
16 | 8.33 | Cc1nc2nonc2c(N)c1Cc1ccc(C(=O)NC(C)CO)cc1 (centres unmarked) [Compound 14.10, 4-({7-amino-5-methyl-[1,2,5]oxadiazolo[3,4-b]pyridin-6-yl}methyl)-N-(1-hydroxypropan-2-yl)benzamide]
17 | 8.38 | Cc1nc2nonc2c(N)c1Cc1ccc(C(=O)NCc2cnn(C)c2)cc1 [Compound 14.11, 4-({7-Amino-5-methyl-[1,2,5]oxadiazolo[3,4-b]pyridin-6-yl}methyl)-N-[(1-methyl-1H-pyrazol-4-yl)methyl]benzamide]
18 | 8.52 | Cc1nc2nonc2c(N)c1Cc1ccc(C(=O)NC2CCOC2)cc1 (centres unmarked) [Compound 14.12, 4-({7-Amino-5-methyl-[1,2,5]oxadiazolo[3,4-b]pyridin-6-yl}methyl)-N-(oxolan-3-yl)benzamide]

Row | pIC50 | Compound
19 | 8.30 | Cc1nc2nonc2c(N)c1Cc1ccc(C(=O)NCC2(C)COC2)cc1 [Compound 14.13, 4-({7-Amino-5-methyl-[1,2,5]oxadiazolo[3,4-b]pyridin-6-yl}methyl)-N-[(3-methyloxetan-3-yl)methyl]benzamide]
20 | 8.26 | Cc1nc2nonc2c(N)c1Cc1ccc(C(=O)NCc2ccnnc2)cc1 [Compound 14.14, 4-({7-Amino-5-methyl-[1,2,5]oxadiazolo[3,4-b]pyridin-6-yl}methyl)-N-[(pyridazin-4-yl)methyl]benzamide]
21 | 8.29 | Cc1nc2nonc2c(N)c1Cc1ccc(C(=O)NCC(C)O)cc1 (centres unmarked) [Compound 14.15, 4-({7-Amino-5-methyl-[1,2,5]oxadiazolo[3,4-b]pyridin-6-yl}methyl)-N-(2-hydroxypropyl)benzamide]
22 | 8.43 | Cc1nc2nonc2c(N)c1Cc1ccc(C(=O)NC(CO)C2CC2)cc1 (centres unmarked) [Compound 14.16, 4-({7-Amino-5-methyl-[1,2,5]oxadiazolo[3,4-b]pyridin-6-yl}methyl)-N-(1-cyclopropyl-2-hydroxyethyl)benzamide]
23 | 8.35 | Cc1nc2nonc2c(N)c1Cc1ccc(C(=O)Nc2ncnn2C)cc1 [Compound 14.17, 4-({7-Amino-5-methyl-[1,2,5]oxadiazolo[3,4-b]pyridin-6-yl}methyl)-N-(1-methyl-1H-1,2,4-triazol-5-yl)benzamide]
24 | 8.11 | CNC(=O)c1ccc(Cc2c(C)nc3nonc3c2N)cc1 [Compound 14.18, 4-({7-Amino-5-methyl-[1,2,5]oxadiazolo[3,4-b]pyridin-6-yl}methyl)-N-methylbenzamide]
25 | 9.74 | Cc1nc2nonc2c(N)c1Cc1ccc(OC(F)(F)F)c(C(=O)N(C)C)c1 [Compound 15.1, 5-({7-Amino-5-methyl-[1,2,5]oxadiazolo[3,4-b]pyridin-6-yl}methyl)-N,N-dimethyl-2-(trifluoromethoxy)benzamide]
26 | 10.02 | Cc1nc2nonc2c(N)c1Cc1ccc(OC(F)(F)F)c(C(N)=O)c1 [Compound 15.2, 5-({7-Amino-5-methyl-[1,2,5]oxadiazolo[3,4-b]pyridin-6-yl}methyl)-2-(trifluoromethoxy)benzamide]
27 | 8.80 | Cc1nc2nonc2c(N)c1Cc1ccc(Cl)c(C(N)=O)c1 [Compound 15.3, 5-({7-Amino-5-methyl-[1,2,5]oxadiazolo[3,4-b]pyridin-6-yl}methyl)-2-chlorobenzamide]
28 | 9.03 | CNC(=O)c1cc(Cc2c(C)nc3nonc3c2N)ccc1Cl [Compound 15.4, 5-({7-Amino-5-methyl-[1,2,5]oxadiazolo[3,4-b]pyridin-6-yl}methyl)-2-chloro-N-methylbenzamide]
29 | 9.32 | Cc1nc2nonc2c(N)c1Cc1ccc(Cl)c(C(=O)N(C)C)c1 [Compound 15.5, 5-({7-Amino-5-methyl-[1,2,5]oxadiazolo[3,4-b]pyridin-6-yl}methyl)-2-chloro-N,N-dimethylbenzamide]
30 | 8.90 | Cc1nc2nonc2c(N)c1Cc1ccc(C(F)(F)F)c(C(=O)N(C)C)c1 [Compound 15.6, 5-({7-Amino-5-methyl-[1,2,5]oxadiazolo[3,4-b]pyridin-6-yl}methyl)-N,N-dimethyl-2-(trifluoromethyl)benzamide]
31 | 9.59 | Cc1nc2nonc2c(N)c1Cc1ccc(OC(F)(F)F)c(C#N)c1 [Compound 16.1, 5-({7-Amino-5-methyl-[1,2,5]oxadiazolo[3,4-b]pyridin-6-yl}methyl)-2-(trifluoromethoxy)benzonitrile]
32 | 9.14 | Cc1nc2nonc2c(N)c1Cc1ccc(CO)cc1 [Compound 17.1, [4-({7-Amino-5-methyl-[1,2,5]oxadiazolo[3,4-b]pyridin-6-yl}methyl)phenyl]methanol]
33 | 9.77 | Cc1nc2nonc2c(N)c1Cc1ccc(C(F)F)cc1 [Compound 17.2, 6-{[4-(difluoromethyl)phenyl]methyl}-5-methyl-[1,2,5]oxadiazolo[3,4-b]pyridin-7-amine]
34 | 9.04 | Cc1nc2nonc2c(N)c1Cc1ccc([S+](C)[O-])cc1 (centres unmarked) [Compound 18.1, 6-[(4-Methanesulfinylphenyl)methyl]-5-methyl-[1,2,5]oxadiazolo[3,4-b]pyridin-7-amine]
35 | 8.34 | Cc1nc2nonc2c(N)c1Cc1ccc(C2(C(N)=O)CC2)nc1 [Compound 19.1, 1-[5-({7-Amino-5-methyl-[1,2,5]oxadiazolo[3,4-b]pyridin-6-yl}methyl)pyridin-2-yl]cyclopropane-1-carboxamide]
